One assay deals with FABP4 mRNA expression. As to the kind of experiment: PCR of FABP4 mRNA during adipocyte differentiation of embryonic stem cells. The class given is cell-based, mouse. The following applies: SIRT1+/+ cells treated with EX527 10 μM, harvested 7 and 10 days after induction, FIG. 3. The protocol: (§1) In the present disclosure, in order to confirm the mechanism of regulating the differentiation of embryonic stem cells into adipocytes by SIRT1, in the step of differentiating into adipocytes, mRNA expression levels of peroxisome proliferator-activated receptors-γ (PPARγ), CCAAT/enhancer-binding protein-α (C/EBP α) and fatty acid binding protein 4 (FABP4) in adipocytes were measured by a PCR method. Each primer used in the PCR method was as represented in Table 1 and was manufactured by Bioneer (Korea). GAPDH was used as a control group for the reliability of the PCR method.
(§2) In the same manner as in Example 2, differentiation of embryonic stem cells into adipocytes was induced, each cell was harvested on 7 and 10 days after induction of lipid differentiation, and total RNAs were extracted using TRIzol reagent (Life Technology, USA). The extracted RNAs were synthesized into cDNAs using a cDNA synthesis kit (Roche, Germany) and a PCR method was carried out using the primers represented in Table 1.

The subject of assay [1] is mouse embryonic stem cells (SIRT1+/+; WT), differentiation into adipocytes. The assay can be described thus: Oil Red O staining of embryonic stem cells differentiated into adipocytes. The following applies: for differentiation into adipocytes versus group without inhibitor (Oil Red O): EX527 10 μM, FIG. 4. The class given is cell-based. Here is the method: In the present disclosure, in order to determine whether differentiation of embryonic stem cells into adipocytes was affected by the presence or absence of SIRT1 protein expression, degrees of differentiation of the embryonic stem cells (SIRT1+/+; WT) expressing the SIRT1 genes and the mouse embryonic stem cells lacking SIRT1 genes (SIRT1−/−; KO), prepared in Example 1, were determined, and when EX527 (10 μM, Tocris, UK), SIRT1 inhibitor, was treated with SIRT1+/+ embryonic stem cells, the degree of lipid differentiation according to SITRT1 inhibition was determined.
In the hanging-drop culture, 1000 embryonic stem cells were added into 20 μl to prepare a single embryoid body, the process of induction into adipocytes was cultured by inoculating 15 cultures into each well using a 6-well plate.
The medium for differentiation into adipocyte was prepared by adding 85 nM insulin (Sigma, USA), 2 nM triiodothyronine (Sigma, USA) and 2 μM rosiglitazone (Sigma, USA) to DMEM and embryoid bodies were cultured, the medium exchange was performed daily.
In addition, SIRT1 inhibitor EX527 was added to SIRT1+/+ embryonic stem cells until the early 5th day of differentiation into adipocytes.
Oil Red O staining was performed to determine whether the differentiation into adipocytes was successfully performed in mouse embryonic stem cells differentiated for 21 days in Example 2.
First, SIRT1+/+ cells, SIRT1−/− cells, and SIRT1+/+ cells differentiated by treatment with SIRT1 inhibitor were treated with 10% formaldehyde to fix the cells, the formaldehyde was washed with phosphate buffered saline three times and then was treated with 60% isopropanol. Then, 2 ml Oil Red O staining solution was added and the mixture was stained at room temperature for 30 minutes in the dark, and then was washed with phosphate buffered saline three times.
Oil Red O staining was performed on the lipid droplets in the differentiated adipocytes. After staining, the cells were observed using a microscope to identify red-stained fat adipocytes.
When the observation was completed, stained dye in adipocyte was extracted using 1 ml isopropanol per well and optical density (OD) was measured at 500 nm with an ELISA reader. The Oil Red O staining solution is a solution of 500 mg of Oil Red O dye (Sigma, USA) in 100 ml isopropanol, mixed with distilled water at a ratio of 6:4 and filtered using a 0.45 μm filter.
In the same manner as in Example 2, differentiation of embryonic stem cells into adipocytes was induced. The samples were divided into various groups: a group treated for 0 to 5 days at the early stage of differentiation, a group treated for 7 to 21 days at the latter stage of differentiation, and a group treated for 0 to 21 days during the entire differentiation period, which were treated with the SIRT1 inhibitor.

The next assay concerns C/EBP α mRNA expression. As to the kind of experiment: PCR of C/EBP α mRNA during adipocyte differentiation of embryonic stem cells. Type of assay: cell-based, mouse. The conditions noted are these: SIRT1+/+ cells treated with EX527 10 μM, harvested 7 and 10 days after induction, FIG. 3. The protocol:
as §1, §2

Another assay has as its system WT1 mRNA expression. As to the kind of experiment: Quantitative PCR of WT1 mRNA during differentiation of embryonic stem cells into kidney precursor cells. The class given is cell-based, mouse. The conditions noted are these: for mRNA expression level of WT1: embryonic stem cells, EX527 5-10 uM, resveratrol 10-20 uM, FIG. 7A. The protocol:
(§3) The cell culture media, from which Leukemia Inhibitory Factor (LIF; Milipore, USA) was removed, were treated with 100 nmol/L Retinoic acid and 10 ng/mL Activin A, and then mRNA expression levels of Six2 and WT1, kidney precursor cells, were measured. In the process of induction into kidney precursor cells, embryonic stem cells were inoculated into wells of a 6-well plate to be cultured therein.
(§4) The media for differentiation into kidney precursor cells were cultured by adding 2 mM Gluta MAX™ (Gibco, USA), 1× Non-essential aminoacid, (1×NEAA; Gibco, USA), 0.1 mM beta-mercaptoethanol (Invitrogen, USA) and […] to DMEM.
(§5) In the step for differentiation of embryonic stem cells into kidney precursor cells, mRNA expression levels of Six2 and WT1, indicators of kidney precursor cells, were measured by a PCR method. Each primer used in the PCR method was as represented in Table 2 and was manufactured by Bioneer (Korea). GAPDH was used as a control group for the reliability of the PCR method.
(§6) In the same manner as in Example 6, differentiation of embryonic stem cells into kidney precursor cells was induced, each cell was harvested on day 11 of differentiation induction and then total RNAs were extracted using TRIzol reagent (Life Technology, USA). The extracted RNAs were synthesized into cDNAs using a cDNA synthesis kit (Roche, Germany) and a PCR method was carried out using the primers represented in Table 2.
(§7) In order to confirm the differentiation of embryonic stem cells into kidney precursor cells according to the inhibition or promotion of SIRT1 protein expression, the differentiation of the embryonic stem cells (SIRT1+/+; WT) expressing the SIRT1 genes, which were prepared in Example 1, into kidney precursor cells was confirmed. The differentiation was confirmed by protein expression levels of Six2 and WT1, indicators of kidney precursor cells.
(§8) In the step for differentiation of embryonic stem cells into kidney precursor cells, mRNA expression levels of Six2 and WT1, indicators of kidney precursor cells, were measured by a quantitative PCR method.

For another assay, the system named is PPARγ mRNA expression. As to the kind of experiment: PCR of PPARγ mRNA during adipocyte differentiation of embryonic stem cells. The class given is cell-based, mouse. The following applies: SIRT1+/+ cells treated with EX527 10 μM, harvested 7 and 10 days after induction, FIG. 3. Here is the method:
as §1, §2

In another assay the test system is Six2 mRNA expression. The assay can be described thus: Quantitative PCR of Six2 mRNA during differentiation of embryonic stem cells into kidney precursor cells. Type of assay: cell-based, mouse. The conditions noted are these: for mRNA expression level of Six2: embryonic stem cells, EX527 5-10 uM, resveratrol 10-20 uM, FIG. 7B. Here is the method:
as §3, §4, §5, §6, §7, §8

Structures are written as SMILES.

As to `NC(=O)C1CCCc2c1[nH]c1ccc(Cl)cc21` (stereo not shown) [EX527, 6-Chloro-2,3,4,9-tetrahydro-1H-Carbazole-1-carboxamide], in the assay on FABP4 mRNA expression, the “mRNA expression of FABP4” value is given as “significantly decreased”. The “differentiation into adipocytes versus group without inhibitor (Oil Red O)” value in assay [1] (treated 0 to 5 days, early stage of differentiation) was “decrease in differentiation into adipocytes”; in assay [1] (treated 0 to 21 days, entire differentiation period), “not significantly different”; in assay [1] (treated 7 to 21 days, latter stage of differentiation), “more differentiated into adipocytes”. The “adipocyte differentiation (lipid droplets, Oil Red O staining, microscope) versus SIRT1+/+ cells” value in assay [1] (SIRT1+/+ cells, EX527 10 μM until early 5th day of differentiation, 21 days differentiation, FIG. 2A) was “remarkably lower”. In assay [1] (SIRT1+/+ cells, EX527 10 μM until early 5th day, compared to SIRT1+/+ cells, FIG. 2B), the “reduction of adipocyte differentiation (absorbance at 500 nm of extracted Oil Red O)” value is “about 38%”. In addition, in the assay with C/EBP α mRNA expression, the “mRNA expression of C/EBP α” value is given as “significantly decreased”. Further, the “mRNA expression level of WT1” value in the assay on WT1 mRNA expression is “significantly decreased”; in the assay on WT1 mRNA expression (listed as SIRT1 inhibitor), “decreased”. Further, in the assay on PPARγ mRNA expression, the “mRNA expression of PPARγ” value is “significantly decreased”. Besides, the “mRNA expression level of Six2” value in the assay with Six2 mRNA expression was “significantly decreased”; in the assay with Six2 mRNA expression (listed as SIRT1 inhibitor) it was “decreased”.

In the case of `Oc1ccc(C=Cc2cc(O)cc(O)c2)cc1` [resveratrol], the “mRNA expression level of WT1” value with WT1 mRNA expression was “significantly increased”. Also, the “expression of WT1 compared with control” value with WT1 mRNA expression (resveratrol 20 μM) is listed as “significantly promoted”. In addition, the “mRNA expression level of Six2” value in the assay on Six2 mRNA expression is listed as “significantly increased”. Moreover, the “expression of Six2 compared with control” value in the assay with Six2 mRNA expression (resveratrol 20 μM) is given as “significantly promoted”.

The record behind these values is US10662407B2, “Method for controlling differentiation of embryonic stem cells into adipocytes or kidney precursor cells by regulating SIRT1 expression” (INDUSTRIAL COOPERATION FOUNDATION CHONBUK NATIONAL …, priority 2015, dated 2020).
